In patent publication US20260262643A1, “HERBICIDAL BENZOXAZINES” (FMC CORPORATION, priority 2022, published 2026):

Tests used:
corn [1] = test: Test C postemergence; assay type: in vivo, Zea mays; conditions: 10 days, 0 to 100 scale (0 no effect, 100 complete control)
How it was run: (§1)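 Pre: seeds in loam/sand, directed soil spray. Post: 1–2 leaf plants, 2–10 cm. Cmpd in non-phytotoxic solvent + surfactant. Greenhouse 10 d; visual rating vs untreated, 0 = none, 100 = complete control.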

wheat [2] = test: Test C postemergence; assay type: in vivo, Triticum aestivum; conditions: Postemergence, 125 g ai/ha; 0 to 100 scale (0 no effect, 100 complete control), 10 days
How it was run: as §1

ragweed [3] = test: Test C preemergence; assay type: in vivo, Ambrosia artemisiifolia; conditions: for Ragweed plant response rating: 500 g ai/ha, preemergence, 0 to 100 scale (0 no effect, 100 complete control); for Plant response rating, Ragweed: Preemergence, 125 g ai/ha, 0 to 100 scale, 0 no effect, 100 complete control
How it was run: as §1

blackgrass [4] = test: Test C postemergence; assay type: in vivo, Alopecurus myosuroides; conditions: 10 days, 0 to 100 scale (0 no effect, 100 complete control)
How it was run: as §1

kochia [5] = test: Test C preemergence; assay type: in vivo, Bassia scoparia; conditions: for Kochia plant response rating: 500 g ai/ha, preemergence, 0 to 100 scale (0 no effect, 100 complete control); for Plant response rating, Kochia: Preemergence, 125 g ai/ha, 0 to 100 scale, 0 no effect, 100 complete control
How it was run: as §1

blackgrass [6] = test: Test C preemergence; assay type: in vivo, Alopecurus myosuroides; conditions: for Blackgrass plant response rating: 500 g ai/ha, preemergence, 0 to 100 scale (0 no effect, 100 complete control); for Plant response rating, Blackgrass: Preemergence, 125 g ai/ha, 0 to 100 scale, 0 no effect, 100 complete control
How it was run: as §1

ryegrass, Italian [7] = test: Test C preemergence; assay type: in vivo, Lolium multiflorum; conditions: for Ryegrass, Italian plant response rating: 500 g ai/ha, preemergence, 0 to 100 scale (0 no effect, 100 complete control); for Plant response rating, Ryegrass, Italian: Preemergence, 125 g ai/ha, 0 to 100 scale, 0 no effect, 100 complete control
How it was run: as §1

wheat [8] = test: Test C preemergence; assay type: in vivo, Triticum aestivum; conditions: for Wheat plant response rating: 500 g ai/ha, preemergence, 0 to 100 scale (0 no effect, 100 complete control); for Plant response rating, Wheat: Preemergence, 125 g ai/ha, 0 to 100 scale, 0 no effect, 100 complete control
How it was run: as §1

ryegrass, Italian [9] = test: Test C postemergence; assay type: in vivo, Lolium multiflorum; conditions: Postemergence, 125 g ai/ha; 0 to 100 scale (0 no effect, 100 complete control), 10 days
How it was run: as §1

oat, wild [10] = test: Test C postemergence; assay type: in vivo, Avena fatua; conditions: 10 days, 0 to 100 scale (0 no effect, 100 complete control)
How it was run: as §1

soybean [11] = test: Test C preemergence; assay type: in vivo, Glycine max; conditions: for Soybean plant response rating: 500 g ai/ha, preemergence, 0 to 100 scale (0 no effect, 100 complete control); for Plant response rating, Soybean: Preemergence, 125 g ai/ha, 0 to 100 scale, 0 no effect, 100 complete control
How it was run: as §1

ragweed [12] = test: Test C postemergence; assay type: in vivo, Ambrosia artemisiifolia; conditions: Postemergence, 125 g ai/ha; 0 to 100 scale (0 no effect, 100 complete control), 10 days
How it was run: as §1

soybean [13] = test: Test C postemergence; assay type: in vivo, Glycine max; conditions: Postemergence, 125 g ai/ha; 0 to 100 scale (0 no effect, 100 complete control), 10 days
How it was run: as §1

barnyardgrass [14] = test: Test C postemergence; assay type: in vivo, Echinochloa crusgalli; conditions: 10 days, 0 to 100 scale (0 no effect, 100 complete control)
How it was run: as §1

barnyardgrass [15] = test: Test C preemergence; assay type: in vivo, Echinochloa crusgalli; conditions: for Barnyardgrass plant response rating: 500 g ai/ha, preemergence, 0 to 100 scale (0 no effect, 100 complete control); for Plant response rating, Barnyardgrass: Preemergence, 125 g ai/ha, 0 to 100 scale, 0 no effect, 100 complete control
How it was run: as §1

rice = test: Test D flooded paddy test; assay type: in vivo, Oryza sativa; conditions: 250 g ai/ha, applied to paddy water, visual rating after 13 to 14 days, scale 0 to 100 (0 no effect, 100 complete control)
How it was run: (§2)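 Seedlings reached the 2-leaf stage, then pots were flooded to 3 cm over the soil surface. Compound was applied into the water, depth was maintained, and plants stayed in the greenhouse 13 to 14 days before visual scoring (0–100) relative to controls.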

barnyardgrass [16] = test: Test D flooded paddy test; assay type: in vivo, Echinochloa crus-galli; conditions: 250 g ai/ha, applied to paddy water, visual rating after 13 to 14 days, scale 0 to 100 (0 no effect, 100 complete control)
How it was run: as §2

oat, wild [17] = test: Test C preemergence; assay type: in vivo, Avena fatua; conditions: for Oat, Wild plant response rating: 500 g ai/ha, preemergence, 0 to 100 scale (0 no effect, 100 complete control); for Plant response rating, Oat, Wild: Preemergence, 125 g ai/ha, 0 to 100 scale, 0 no effect, 100 complete control
How it was run: as §1

green foxtail [18] = test: Test C preemergence; assay type: in vivo, Setaria viridis; conditions: for Foxtail, Green plant response rating: 500 g ai/ha, preemergence, 0 to 100 scale (0 no effect, 100 complete control); for Plant response rating, Foxtail, Green: Preemergence, 125 g ai/ha, 0 to 100 scale, 0 no effect, 100 complete control
How it was run: as §1

sedge, umbrella = test: Test D flooded paddy test; assay type: in vivo, Cyperus difformis; conditions: 250 g ai/ha, applied to paddy water, visual rating after 13 to 14 days, scale 0 to 100 (0 no effect, 100 complete control)
How it was run: as §2

pigweed, palmer [19] = test: Test C preemergence; assay type: in vivo, Amaranthus palmeri; conditions: for Pigweed, Palmer plant response rating: 500 g ai/ha, preemergence, 0 to 100 scale (0 no effect, 100 complete control); for Plant response rating, Pigweed, Palmer: Preemergence, 125 g ai/ha, 0 to 100 scale, 0 no effect, 100 complete control
How it was run: as §1

ducksalad = test: Test D flooded paddy test; assay type: in vivo, Heteranthera limosa; conditions: 250 g ai/ha, applied to paddy water, visual rating after 13 to 14 days, scale 0 to 100 (0 no effect, 100 complete control)
How it was run: as §2

kochia [20] = test: Test C postemergence; assay type: in vivo, Bassia scoparia; conditions: 10 days, 0 to 100 scale (0 no effect, 100 complete control)
How it was run: as §1

green foxtail [21] = test: Test C postemergence; assay type: in vivo, Setaria viridis; conditions: 10 days, 0 to 100 scale (0 no effect, 100 complete control)
How it was run: as §1

horseweed = test: Test C postemergence; assay type: in vivo, Erigeron canadensis; conditions: 10 days, 0 to 100 scale (0 no effect, 100 complete control)
How it was run: as §1

pigweed, palmer [22] = test: Test C postemergence; assay type: in vivo, Amaranthus palmeri; conditions: 10 days, 0 to 100 scale (0 no effect, 100 complete control)
How it was run: as §1

corn [23] = test: Test C preemergence; assay type: in vivo, Zea mays; conditions: for Corn plant response rating: 500 g ai/ha, preemergence, 0 to 100 scale (0 no effect, 100 complete control); for Plant response rating, Corn: Preemergence, 125 g ai/ha, 0 to 100 scale, 0 no effect, 100 complete control
How it was run: as §1

SMILES: Cc1ccc(-n2cnc(C(C)(C)C#N)n2)cc1C(=O)N1C[C@H](C)Oc2c(Cl)cccc21 [Compound 397]
- Plant response rating, Corn (corn [1]; 500 g ai/ha, postemergence): 70
- Plant response rating, Corn (corn [1]; Postemergence, 125 g ai/ha): 70
- Plant response rating, Wheat (wheat [2]): 20
- Ragweed plant response rating (ragweed [3]): 80
- Plant response rating, Ragweed (ragweed [3]): 50
- Plant response rating, Blackgrass (blackgrass [4]; 500 g ai/ha, postemergence): 90
- Plant response rating, Blackgrass (blackgrass [4]; Postemergence, 125 g ai/ha): 80
- Kochia plant response rating (kochia [5]): 100
- Plant response rating, Kochia (kochia [5]): 90
- Blackgrass plant response rating (blackgrass [6]): 90
- Plant response rating, Blackgrass (blackgrass [6]): 70
- Ryegrass, Italian plant response rating (ryegrass, Italian [7]): 90
- Plant response rating, Ryegrass, Italian (ryegrass, Italian [7]): 80
- Wheat plant response rating (wheat [8]): 30
- Plant response rating, Wheat (wheat [8]): 10
- Plant response rating, Ryegrass, Italian (ryegrass, Italian [9]): 50
- Plant response rating, Oat, Wild (oat, wild [10]; 500 g ai/ha, postemergence): 70
- Plant response rating, Oat, Wild (oat, wild [10]; Postemergence, 125 g ai/ha): 20
- Soybean plant response rating (soybean [11]): 100
- Plant response rating, Soybean (soybean [11]): 70
- Plant response rating, Ragweed (ragweed [12]): 100
- Plant response rating, Soybean (soybean [13]): 50
- Plant response rating, Barnyardgrass (barnyardgrass [14]; 500 g ai/ha, postemergence): 60
- Plant response rating, Barnyardgrass (barnyardgrass [14]; Postemergence, 125 g ai/ha): 40
- Barnyardgrass plant response rating (barnyardgrass [15]): 100
- Plant response rating, Barnyardgrass (barnyardgrass [15]): 90
- Plant response rating, Rice (Flood) (rice): 15
- Plant response rating, Barnyardgrass (Flood) (barnyardgrass [16]): 50
- Oat, Wild plant response rating (oat, wild [17]): 90
- Plant response rating, Oat, Wild (oat, wild [17]): 60
- Foxtail, Green plant response rating (green foxtail [18]): 100
- Plant response rating, Foxtail, Green (green foxtail [18]): 100
- Plant response rating, Sedge, Umbrella (Flood) (sedge, umbrella): 45
- Pigweed, Palmer plant response rating (pigweed, palmer [19]): 100
- Plant response rating, Pigweed, Palmer (pigweed, palmer [19]): 100
- Plant response rating, Ducksalad (Flood) (ducksalad): 10
- Plant response rating, Kochia (kochia [20]; 500 g ai/ha, postemergence): 100
- Plant response rating, Kochia (kochia [20]; Postemergence, 125 g ai/ha): 90
- Plant response rating, Foxtail, Green (green foxtail [21]; 500 g ai/ha, postemergence): 90
- Plant response rating, Foxtail, Green (green foxtail [21]; Postemergence, 125 g ai/ha): 90
- Plant response rating, Horseweed (horseweed; 500 g ai/ha, postemergence): 80
- Plant response rating, Horseweed (horseweed; Postemergence, 125 g ai/ha): 40
- Plant response rating, Pigweed, Palmer (pigweed, palmer [22]; 500 g ai/ha, postemergence): 100
- Plant response rating, Pigweed, Palmer (pigweed, palmer [22]; Postemergence, 125 g ai/ha): 100
- Corn plant response rating (corn [23]): 20
- Plant response rating, Corn (corn [23]): 10

SMILES: CCOC[C@H]1CN(C(=O)c2cc(-n3cnc(C(C)(C)C)n3)cc3c2OCO3)c2cccc(Cl)c2O1 [Compound 401]
- Plant response rating, Corn (corn [1]; 500 g ai/ha, postemergence): 40
- Plant response rating, Corn (corn [1]; Postemergence, 125 g ai/ha): 0
- Plant response rating, Wheat (wheat [2]): 10
- Ragweed plant response rating (ragweed [3]): 60
- Plant response rating, Ragweed (ragweed [3]): 0
- Plant response rating, Blackgrass (blackgrass [4]; 500 g ai/ha, postemergence): 30
- Plant response rating, Blackgrass (blackgrass [4]; Postemergence, 125 g ai/ha): 10
- Kochia plant response rating (kochia [5]): 90
- Plant response rating, Kochia (kochia [5]): 0
- Blackgrass plant response rating (blackgrass [6]): 30
- Plant response rating, Blackgrass (blackgrass [6]): 30
- Ryegrass, Italian plant response rating (ryegrass, Italian [7]): 90
- Plant response rating, Ryegrass, Italian (ryegrass, Italian [7]): 70
- Wheat plant response rating (wheat [8]): 20
- Plant response rating, Wheat (wheat [8]): 0
- Plant response rating, Ryegrass, Italian (ryegrass, Italian [9]): 0
- Plant response rating, Oat, Wild (oat, wild [10]; 500 g ai/ha, postemergence): 0
- Plant response rating, Oat, Wild (oat, wild [10]; Postemergence, 125 g ai/ha): 0
- Soybean plant response rating (soybean [11]): 40
- Plant response rating, Soybean (soybean [11]): 0
- Plant response rating, Ragweed (ragweed [12]): 60
- Plant response rating, Soybean (soybean [13]): 0
- Plant response rating, Barnyardgrass (barnyardgrass [14]; 500 g ai/ha, postemergence): 20
- Plant response rating, Barnyardgrass (barnyardgrass [14]; Postemergence, 125 g ai/ha): 10
- Barnyardgrass plant response rating (barnyardgrass [15]): 70
- Plant response rating, Barnyardgrass (barnyardgrass [15]): 30
- Plant response rating, Rice (Flood) (rice): 0
- Plant response rating, Barnyardgrass (Flood) (barnyardgrass [16]): 0
- Oat, Wild plant response rating (oat, wild [17]): 40
- Plant response rating, Oat, Wild (oat, wild [17]): 0
- Foxtail, Green plant response rating (green foxtail [18]): 100
- Plant response rating, Foxtail, Green (green foxtail [18]): 20
- Plant response rating, Sedge, Umbrella (Flood) (sedge, umbrella): 0
- Pigweed, Palmer plant response rating (pigweed, palmer [19]): 100
- Plant response rating, Pigweed, Palmer (pigweed, palmer [19]): 100
- Plant response rating, Ducksalad (Flood) (ducksalad): 0
- Plant response rating, Kochia (kochia [20]; 500 g ai/ha, postemergence): 100
- Plant response rating, Kochia (kochia [20]; Postemergence, 125 g ai/ha): 90
- Plant response rating, Foxtail, Green (green foxtail [21]; 500 g ai/ha, postemergence): 20
- Plant response rating, Foxtail, Green (green foxtail [21]; Postemergence, 125 g ai/ha): 10
- Plant response rating, Horseweed (horseweed; 500 g ai/ha, postemergence): 70
- Plant response rating, Horseweed (horseweed; Postemergence, 125 g ai/ha): 60
- Plant response rating, Pigweed, Palmer (pigweed, palmer [22]; 500 g ai/ha, postemergence): 90
- Plant response rating, Pigweed, Palmer (pigweed, palmer [22]; Postemergence, 125 g ai/ha): 100
- Corn plant response rating (corn [23]): 20
- Plant response rating, Corn (corn [23]): 0
